Assay [1] concerns Pyricularia oryzae. It counts as in vivo.
Assay [2] deals with Rhizoctonia solani. The experiment in a line: Test Example 5: control test on paddy rice sheath blight, submerged application. To be noted: submerged application of granule. It counts as in vivo. The protocol: After 14 days from the treatment, Rhizoctonia solani cultured on a rice chaff/bran medium was inoculated on the basal of the rice plant. After 10 days from the inoculation, the extended lesion length of sheath blight of the whole stem was examined. The control value was calculated according to the following equation (3 replications).
(§1) Control Value=(1−average lesion length per a stem in the treated plot/average lesion length per a stem in the untreated plot)×100

Assay [3] deals with Pyricularia oryzae. It counts as in vivo. The source holds these as a separate data set.
The test system of the next assay is rice Bakanae disease. The assay can be described thus: Test Example 7: control test on rice Bakanae disease, seed immersion. Particulars: seed immersion 24 hours. The assay is classed as in vivo. As for the experimental part:
150 g of dry rice seeds of naturally infected with rice Bakanae disease (cultivar: Nihonbare) was immersed in a compound solution which was diluted with water to have a prescribed concentration at a volume ratio of 1:1 for 24 hours (liquid temperature; 20 degree centigrade) and air-dried. Subsequently, the seeds were soaked in water at 15 degree centigrade for 4 days and subjected to a sprouting in water at 30 degree centigrade for 24 hours, and then sowed in a nursery box. After the sowing, the seeds were incubated at 30 degree centigrade for 2 days and grown in a greenhouse. After 21 days from the sowing, the number of seedlings showing symptoms of Bankanae disease for 300 seedlings per each chemical was examined. The control value was calculated according to the following equation.
(§2) Control Value=(1−number of infected seedlings in the treated plot/number of infected seedlings in the untreated plot)×100

The next assay deals with Pythium sp. The experiment in a line: Test Example 9: control test on seedling blight (Pythium sp), irrigation. The assay is classed as in vivo. Particulars: irrigation 500 ml per box. As for the experimental part: 150 g of rice seeds of rice (cultivar: Nihonbare) per a box was sowed on a commercial nursery box. After the sowing, the box was treated by irrigation with a compound solution which was diluted to the prescribed concentration at a ratio of 500 ml per a box before covering the seeds with soil. Infected soil, which was made by adding sterilized water to Pythium sp cultured on a PDA medium and pulverizing whole medium and mixing to a commercial soil, was used for a bed soil. After covering the seeds with soil, the seeds were incubated at 30 degree centigrade for 2 days and then arranged under a condition of 5 degree centigrade for 2 days to enhance disease emergence. After the low temperature treatment, the seeds were grown in a greenhouse.
as §2

For assay [4], the system named is Rhizoctonia solani. The experiment in a line: Test Example 6: control test on paddy rice sheath blight, nursery box application. The assay is classed as in vivo. To be noted: nursery box application of granule. As for the experimental part:
After 30 days from the treatment, Rhizoctonia solani cultured on a rice chaff/bran medium was inoculated on the basal of the rice plant. After 10 days from the inoculation, the extended lesion length of sheath blight of the whole stem was examined. The control value was calculated according to the following equation (3 replications).
as §1

The subject of assay [5] is Pyricularia oryzae. The assay can be described thus: whole plant or invertebrate. Particulars: for Control value: 60 ppm; for pest or weed control at 60 ppm: Pyricularia oryzae, 168 h, read-out: Control value. It counts as in vivo.
Assay [6] relates to Rhizoctonia solani. The assay can be described thus: Test Example 4: control test on paddy rice sheath blight, spraying. Particulars: 60 ppm. The assay is classed as in vivo. The protocol: A compound solution of a prescribed concentration was sprayed on three 1/5000a rice pots (cultivar: Koshihikari; 4 leaf stage). After one day from the spraying, Rhizoctonia solani cultured on a rice chaff/bran medium was inoculated on the basal of the rice plant. After 10 days from the inoculation, the extended lesion length of sheath blight of the whole stem was examined. The control value was calculated according to the following equation (3 replications).
as §1

The test system of assay [7] is Pyricularia oryzae. It counts as in vivo. This is another data set of the same source.
A further assay concerns Rhizopus chinensis. The experiment in a line: Test Example 8: control test on seedling blight (Rhizopus sp), irrigation. It counts as in vivo. Particulars: irrigation 500 ml per box. The protocol:
150 g of rice seeds (cultivar: Nihonbare) per a box was sowed in a commercial nursery box. After the sowing, the box was treated by irrigation with a compound solution which was diluted to the prescribed concentration at a ratio of 500 ml per a box before covering the seeds with soil. Infected soil, which was made by adding sterilized water to Rhizopus chinensis cultured on a PDA medium and pulverizing whole medium and mixing to a commercial soil, was used for a bed soil. For covering the seeds, a commercial soil was used as it was. After covering the seeds with soil, the seeds were incubated at 32 degree centigrade for 2 days and then grown in a greenhouse.
After 18 days from the sowing, the severity index for 300 seedlings per each compound was examined in the following criteria. The control value was calculated according to the following equation from the average severity obtained by averaging the severity index of each seedling.
Severity index 0: No lesion • 1: Root browning or fat root observed • 2: Defective growth • 3: Withered to death
(§3) Control Value=(1−average severity in the treated plot/average severity in the untreated plot)×100

Assay [8] concerns bacterial seedling blight. The experiment in a line: Test Example 10: control test on bacterial seedling blight, seed immersion. The assay is classed as in vivo. To be noted: seed immersion 24 hours. The protocol:
150 g of dry rice seeds of naturally infected with bacterial seedling blight (cultivar: Nihonbare) was immersed in a compound solution which was diluted with water to have a prescribed concentration at a volume ratio of 1:1 (liquid temperature; 20 degree centigrade) for 24 hours and air-dried. Subsequently, the seeds were soaked in water at 15 degree centigrade for 4 days and subjected to a sprouting in water at 30 degree centigrade for 24 hours, and then sowed in a nursery box. After the sowing, the seeds were incubated at 30 degree centigrade for 2 days and grown in a greenhouse. After 21 days from the sowing, the severity index for 300 seedlings per each compound was examined on the basis of the following criteria, and the control value was calculated according to the following equation from the average severity obtained by averaging the severity index of each seedling.
Severity index 0: healthy seedling • 1: yellowing or etiolated seedling • 2: dead seedling (withered)
as §3

The test system of a further assay is clubroot. The assay can be described thus: Test Example 11: control test on clubroot of cabbages, soil treatment. The assay is classed as in vivo, Plasmodiophora brassicae. Particulars: dust formulation mixed in soil, 60 gai/10a. The protocol: A dust formulation in a prescribed amount was mixed in soil and cabbage seedlings (cultivar: Shiki-dori) were planted in the field where was recognized to be infected by clubroot. After 60 days from the treatment, plants were picked out, and clubroot formation was examined according to the degree of severity. The control value was calculated according to the following equation from the average severity obtained by averaging the severity index in each plot.
Severity index 0: No clubroot formed • 1: Cluroot was formed at a portion of from not less than 1% to less than 25% of the whole root • 2: Cluroot was formed at a portion of from not less than 25% to less than 50% of the whole root • 3: Cluroot was formed at a portion of from not less than 50% to less than 75% of the whole root • 4: Cluroot was formed at a portion of not less than 75% of the whole root
as §3

Setting [9] is: rice blast, sprayed at 60 ppm active ingredient, lesions after 7 days.

Where two headings read alike, the source gives them in different places.

As to `Cc1ccc(C(=O)NCC(NC(=O)OC(C)C(F)(F)F)C(C)C)cc1` (stereo not drawn) [Compound 30], the figures for the Control value in the assay with Pyricularia oryzae [1] (in vivo) and in the assay with Rhizoctonia solani [2] (225 gai/10a) were 97 and 7, respectively. Also, the “Effect (class of control value)” value in the assay with Pyricularia oryzae [3] (in vivo) is given as “A (key: A: Not less than 80%; B: Not less than 50% to less than 80%; C: Less than 50%)”.
Turning to `CCCCNC(=O)n1c(NC(=O)OC)nc2ccccc21` [Benomyl, reference compound], the Control value in the assay with rice Bakanae disease (1000 ppm) was 98.
On to `C=C(Cl)COC(=O)NC(CNC(=O)c1ccc(C)cc1)C(C)C` (stereo not drawn) [Compound 15], for which the Control value with Pythium sp (60 ppm) was 4; in the assay with Rhizoctonia solani [4] (7.5 gai/box) it was 3; in the assay with Pyricularia oryzae [1] (in vivo), 95; in the assay with Rhizoctonia solani [2] (225 gai/10a) it was 5; in the assay on Pyricularia oryzae [5], 94; in the assay on Rhizoctonia solani [6] it was 4. In the assay with Pyricularia oryzae [7] (in vivo), this compound returned a Control value of 95. Besides, in the assay on Pyricularia oryzae [3] (in vivo), the “Effect (class of control value)” value is “A (key: A: Not less than 80%; B: Not less than 50% to less than 80%; C: Less than 50%)”.
`Cc1ccc(C(=O)NC(CNC(=O)OCC(F)(F)F)C(C)C)cc1` (stereo not drawn) [Compound 6, N-(2,2,2-trifluoroethyloxycarbonyl)-N′-(4-methylbenzoyl)-3-methyl-1,2-butanediamine]: the Control value was found to be 4 in the assay on Rhizoctonia solani [4] (7.5 gai/box); 95 in the assay with Pyricularia oryzae [1] (rice blast, submerged application of granule, 225 gai/10a); 5 with Rhizoctonia solani [2] (225 gai/10a); 3 with Rhizoctonia solani [6]; 96 in the assay on Pyricularia oryzae [7] (rice blast, nursery box application of granule, 7.5 gai/box). In the assay with Pyricularia oryzae [3] (setting [9]), the “Effect (class of control value)” value is listed as “A (Not less than 80%)”. Moreover, in the assay with Pyricularia oryzae [5], the pest or weed control at 60 ppm came out at 97%.
In turn, `N#Cc1c(Cl)c(Cl)c(Cl)c(C#N)c1Cl` [TPN, reference compound] yielded a Control value with Rhizopus chinensis (800 ppm) of 87.
Take `CNC(=O)/C(=N/OC)c1ccccc1CO/N=C(C)/C(=N/OC)C(/C)=N/OC` [Oryzastrobin, reference compound]: the Control value in the assay on Rhizoctonia solani [4] (3.5 gai/box) is given as 94; in the assay with Pyricularia oryzae [1] (rice blast, submerged application of granule, 100 gai/10a) it was 99; in the assay on Rhizoctonia solani [2] (100 gai/10a), 95.
In the case of `Cc1ccc(C(=O)NC(CNC(=O)OC2CCCCC2Cl)C(C)C)cc1` (stereo not drawn) [Compound 17, N-(2-chlorocyclohexyloxycarbonyl)-N′-(4-methylbenzoyl)-3-methyl-1,2-butanediamine], the results for the Control value with Rhizopus chinensis (60 ppm) and in the assay with Rhizoctonia solani [6] were 3 and 5, respectively. Also, the “Effect (class of control value)” value in the assay with Pyricularia oryzae [3] (setting [9]) was “A (Not less than 80%)”. Besides, the pest or weed control at 60 ppm in the assay on Pyricularia oryzae [5] stood at 95%.
The compound `CC(C)NC(=O)N1CC(=O)N(c2cc(Cl)cc(Cl)c2)C1=O` [Iprodione, reference compound] gave a Control value with Rhizopus chinensis (1000 ppm) of 89.
In the case of `CNC(=O)/C(=N/OC)c1ccccc1Oc1ccccc1` [Metominostrobin, reference compound], the Control value with Pyricularia oryzae [1] (rice blast, submerged application of granule, 150 gai/10a) is recorded as 98; in the assay on Rhizoctonia solani [2] (150 gai/10a), 95.
Consider `CC(C)C(CNC(=O)c1cc2ccccc2o1)NC(=O)OCC(F)(F)F` (stereo not drawn) [Compound 28], for which the Control value in assay [8] (60 ppm) is 6; in the assay on Rhizoctonia solani [4] (7.5 gai/box) it was 5; in the assay on Pyricularia oryzae [1] (in vivo), 96; with Rhizoctonia solani [2] (225 gai/10a), 6; with Pyricularia oryzae [5] it was 97; in the assay on Rhizoctonia solani [6] it was 6. This compound also registered a Control value in the assay on Pyricularia oryzae [7] (in vivo) of 96. For the same compound, in the assay with Pyricularia oryzae [3] (in vivo), the “Effect (class of control value)” value is given as “A (key: A: Not less than 80%; B: Not less than 50% to less than 80%; C: Less than 50%)”.
Take `CCn1cc(C(=O)O)c(=O)c2cc3c(cc21)OCO3` [Oxolinic acid, reference compound]: the Control value in [8] (500 ppm) was found to be 89.
Regarding `CCC(C)C(CNC(=O)c1nc2ccccc2s1)NC(=O)OCC(F)(F)F` (stereo not drawn) [Compound 33], the Control value is 8 in the assay with rice Bakanae disease (60 ppm), 96 with Pyricularia oryzae [5] and 6 with Rhizoctonia solani [6]. In the assay on Pyricularia oryzae [3] (in vivo), the “Effect (class of control value)” value was “A (key: A: Not less than 80%; B: Not less than 50% to less than 80%; C: Less than 50%)”.
On to `O=[N+]([O-])c1ccc(NS(=O)(=O)c2ccc(Cl)c(C(F)(F)F)c2)c(Cl)c1` [Flusulfamide], for which the Control value in the assay on clubroot came to 93.
With `CC(C)C(CNC(=O)c1cc2ccccc2s1)NC(=O)OCC(F)(F)F` (stereo not drawn) [Compound 34], the Control value in the assay on Rhizopus chinensis (60 ppm) is given as 3; in the assay with Pyricularia oryzae [5] it was 97; in the assay on Rhizoctonia solani [6], 7. Besides, in the assay on Pyricularia oryzae [3] (in vivo), the “Effect (class of control value)” value was “A (key: A: Not less than 80%; B: Not less than 50% to less than 80%; C: Less than 50%)”.
Turning to `CCC(C)C(CNC(=O)c1ccc(C)cc1)NC(=O)OCC(F)(F)F` (stereo not drawn) [Compound 25], the results for the Control value in the assay with Pyricularia oryzae [1] (in vivo) and in the assay on Rhizoctonia solani [2] (225 gai/10a) were 95 and 5, respectively. Besides, the “Effect (class of control value)” value in the assay with Pyricularia oryzae [3] (in vivo) was “A (key: A: Not less than 80%; B: Not less than 50% to less than 80%; C: Less than 50%)”.
Turning to `Cc1cc(O)no1` [Hydroxyisoxazole, reference compound], the Control value with Pythium sp (800 ppm) came out at 90.
Regarding `N#Cc1c[nH]cc1-c1cccc2c1OC(F)(F)O2` [Fludioxonil, reference compound], in the assay on rice Bakanae disease (250 ppm), the Control value was found to be 99.
For the compound `CCC(C)C(CNC(=O)c1cc2ccccc2o1)NC(=O)OCC(F)(F)F` (stereo not drawn) [Compound 32], the results for the Control value with rice Bakanae disease (60 ppm), in the assay with Pyricularia oryzae [5] and in the assay with Rhizoctonia solani [6] were 12, 95 and 5, respectively. For the same compound, in the assay on Pyricularia oryzae [3] (in vivo), the “Effect (class of control value)” value was “A (key: A: Not less than 80%; B: Not less than 50% to less than 80%; C: Less than 50%)”.

The record behind these values is US20090023667A1 (priority 2005, published 2009).
